Laboratory results: patent publication US8609653B2, “Azaindole compounds and methods for treating HIV” (priority 2011, dated 2013)

These compounds were tested on HIV (assay: MT4 assay: antiviral HIV activity in MT-4 cells). Details: Human immunodeficiency virus 1, MT4, 96 h, read-out: HIV MT4 Assay IC50 (μM), HTLV-1 transformed cell line MT-4; read-out 96 hours later with cell titer glo; 10 point dose response.
Format: cell-based
In short: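 Compounds tested in HTLV-1-transformed MT-4 cells for protection from HIV, with cytotoxicity run in parallel under the same conditions; CellTiter-Glo luminescence read 96 h later. IC50 from 10-point, 3–4-fold serial dilutions spanning >1000-fold, % inhibition relative to no-compound control, fitted by four-parameter logistic.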

Structure (SMILES)	IC50 [µM]
COc1ccc(Cn2ccc3c(-c4ccc5c(c4)CCCO5)c(C(OC(C)(C)C)C(=O)O)c(C)nc32)cc1C(F)(F)F (centres unmarked) [Example 52, 2-(tert-butoxy)-2-(4-(chroman-6-yl)-1-(4-methoxy-3-(trifluoromethyl)benzyl)-6-methyl-1H-pyrrolo[2,3-b]pyridin-5-yl)acetic acid]	0.37
Cc1ccc(F)c(Cn2ccc3c(-c4ccc5c(c4)CCCO5)c(C(OC(C)(C)C)C(=O)O)c(C)nc32)c1Cl (centres unmarked) [Example 53, 2-(tert-butoxy)-2-(1-(2-chloro-6-fluoro-3-methylbenzyl)-4-(chroman-6-yl)-6-methyl-1H-pyrrolo[2,3-b]pyridin-5-yl)acetic acid]	0.055
Cc1ccc(F)cc1Cn1ccc2c(-c3ccc4c(c3)CCCO4)c(C(OC(C)(C)C)C(=O)O)c(C)nc21 (centres unmarked) [Example 54, 2-(tert-butoxy)-2-(4-(chroman-6-yl)-1-(5-fluoro-2-methylbenzyl)-6-methyl-1H-pyrrolo[2,3-b]pyridin-5-yl)acetic acid]	0.045
COc1cccc(F)c1Cn1ccc2c(-c3ccc4c(c3)CCCO4)c(C(OC(C)(C)C)C(=O)O)c(C)nc21 (centres unmarked) [Example 55, 2-(tert-butoxy)-2-(4-(chroman-6-yl)-1-(2-fluoro-6-methoxybenzyl)-6-methyl-1H-pyrrolo[2,3-b]pyridin-5-yl)acetic acid]	0.021
Cc1nc2c(ccn2Cc2c(F)cccc2Cl)c(-c2ccc3c(c2)CCCO3)c1C(OC(C)(C)C)C(=O)O (centres unmarked) [Example 56, 2-(tert-butoxy)-2-(1-(2-chloro-6-fluorobenzyl)-4-(chroman-6-yl)-6-methyl-1H-pyrrolo[2,3-b]pyridin-5-yl)acetic acid]	0.025
Cc1nc2c(ccn2Cc2cccc(F)c2F)c(-c2ccc3c(c2)CCCO3)c1[C@H](OC(C)(C)C)C(=O)O [Example 57, (S)-2-(tert-butoxy)-2-(4-(chroman-6-yl)-1-(2,3-difluorobenzyl)-6-methyl-1H-pyrrolo[2,3-b]pyridin-5-yl)acetic acid]	0.027
Cc1nc2c(ccn2Cc2cc(F)ccc2F)c(-c2ccc3c(c2)CCCO3)c1[C@H](OC(C)(C)C)C(=O)O [Example 58, (S)-2-(tert-butoxy)-2-(4-(chroman-6-yl)-1-(2,5-difluorobenzyl)-6-methyl-1H-pyrrolo[2,3-b]pyridin-5-yl)acetic acid]	0.08
Cc1nc2c(ccn2Cc2ccc(C(F)(F)F)cc2F)c(-c2ccc3c(c2)CCCO3)c1C(OC(C)(C)C)C(=O)O (centres unmarked) [Example 59, 2-(tert-butoxy)-2-(4-(chroman-6-yl)-1-(2-fluoro-4-(trifluoromethyl)benzyl)-6-methyl-1H-pyrrolo[2,3-b]pyridin-5-yl)acetic acid]	0.38
Cc1nc2c(ccn2Cc2cccc(OC(F)(F)F)c2)c(-c2ccc3c(c2)CCCO3)c1C(OC(C)(C)C)C(=O)O (centres unmarked) [Example 60, 2-(tert-butoxy)-2-(4-(chroman-6-yl)-6-methyl-1-(3-(trifluoromethoxy)benzyl)-1H-pyrrolo[2,3-b]pyridin-5-yl)acetic acid]	0.181
COc1cccc(Cn2ccc3c(-c4ccc5c(c4)CCCO5)c(C(OC(C)(C)C)C(=O)O)c(C)nc32)c1 (centres unmarked) [Example 61, 2-(tert-butoxy)-2-(4-(chroman-6-yl)-1-(3-methoxybenzyl)-6-methyl-1H-pyrrolo[2,3-b]pyridin-5-yl)acetic acid]	0.41
Cc1nc2c(ccn2Cc2ccc(-n3cncn3)cc2)c(-c2ccc3c(c2)CCCO3)c1C(OC(C)(C)C)C(=O)O (centres unmarked) [Example 62, 2-(1-(4-(1H-1,2,4-triazol-1-yl)benzyl)-4-(chroman-6-yl)-6-methyl-1H-pyrrolo[2,3-b]pyridin-5-yl)-2-(tert-butoxy)acetic acid]	0.98
Cc1ccc(-c2c(C(OC(C)(C)C)C(=O)O)c(C)nc3c2ccn3Cc2ccc(C(F)(F)F)cc2)cc1 (centres unmarked) [Example 63, 2-(tert-butoxy)-2-(6-methyl-4-(p-tolyl)-1-(4-(trifluoromethyl)benzyl)-1H-pyrrolo[2,3-b]pyridin-5-yl)acetic acid]	3.96
Cc1nc2c(ccn2Cc2ccc(OC(F)(F)F)cc2)c(-c2ccc3c(c2)CCCO3)c1C(OC(C)(C)C)C(=O)O (centres unmarked) [Example 64, 2-(tert-butoxy)-2-(4-(chroman-6-yl)-6-methyl-1-(4-(trifluoromethoxy)benzyl)-1H-pyrrolo[2,3-b]pyridin-5-yl)acetic acid]	0.68
Cc1nc2c(ccn2CC2CCCCC2)c(-c2ccc3c(c2)CCCO3)c1C(OC(C)(C)C)C(=O)O (centres unmarked) [Example 65, 2-(tert-butoxy)-2-(4-(chroman-6-yl)-1-(cyclohexylmethyl)-6-methyl-1H-pyrrolo[2,3-b]pyridin-5-yl)acetic acid]	0.59
Cc1nc2c(ccn2CC2CCN(C(=O)OC(C)(C)C)CC2)c(-c2ccc3c(c2)CCCO3)c1C(OC(C)(C)C)C(=O)O (centres unmarked) [Example 66, 2-(tert-butoxy)-2-(1-((1-(tert-butoxycarbonyl)piperidin-4-yl)methyl)-4-(chroman-6-yl)-6-methyl-1H-pyrrolo[2,3-b]pyridin-5-yl)acetic acid]	7.34
Cc1nc2c(ccn2CC2CCOCC2)c(-c2ccc3c(c2)CCCO3)c1C(OC(C)(C)C)C(=O)O (centres unmarked) [Example 67, 2-(tert-butoxy)-2-(4-(chroman-6-yl)-6-methyl-1-((tetrahydro-2H-pyran-4-yl)methyl)-1H-pyrrolo[2,3-b]pyridin-5-yl)acetic acid]	0.59
Cc1nc2c(ccn2CC2CCC2)c(-c2ccc3c(c2)CCCO3)c1C(OC(C)(C)C)C(=O)O (centres unmarked) [Example 68, 2-(tert-butoxy)-2-(4-(chroman-6-yl)-1-(cyclobutylmethyl)-6-methyl-1H-pyrrolo[2,3-b]pyridin-5-yl)acetic acid]	0.72
Cc1ccc(-c2c(C(OC(C)(C)C)C(=O)O)c(C)nc3c2ccn3Cc2ccc(F)c(C(F)(F)F)c2)cc1 (centres unmarked) [Example 69, 2-(tert-butoxy)-2-(1-(4-fluoro-3-(trifluoromethyl)benzyl)-6-methyl-4-(p-tolyl)-1H-pyrrolo[2,3-b]pyridin-5-yl)acetic acid]	0.25
Cc1ccc(-c2c(C(OC(C)(C)C)C(=O)O)c(C)nc3c2ccn3Cc2ccc(F)cc2C)cc1 (centres unmarked) [Example 70, 2-(tert-butoxy)-2-(1-(4-fluoro-2-methylbenzyl)-6-methyl-4-(p-tolyl)-1H-pyrrolo[2,3-b]pyridin-5-yl)acetic acid]	0.04
Cc1ccc(-c2c(C(OC(C)(C)C)C(=O)O)c(C)nc3c2ccn3C2CCCCC2)cc1 (centres unmarked) [Example 73, 2-(tert-Butoxy)-2-[1-cyclohexyl-6-methyl-4-(4-methylphenyl)-1H-pyrrolo[2,3-b]pyridin-5-yl]acetic acid]	1.31
Cc1ccc(-c2c(C(OC(C)(C)C)C(=O)O)c(C)nc3c2ccn3C2CCC(C)CC2)cc1 [Example 74, 2-(tert-butoxy)-2-(6-methyl-1-((1R,4R)-4-methylcyclohexyl)-4-(p-tolyl)-1H-pyrrolo[2,3-b]pyridin-5-yl)acetic acid]	2.33
COCCn1ccc2c(-c3ccc(C)cc3)c(C(OC(C)(C)C)C(=O)O)c(C)nc21 (centres unmarked) [Example 75, 2-(tert-Butoxy)-2-(1-(2-methoxyethyl)-6-methyl-4-(p-tolyl)-1H-pyrrolo[2,3-b]pyridin-5-yl)acetic acid]	4.1
Cc1ccc(-c2c(C(OC(C)(C)C)C(=O)O)c(C)nc3c2ccn3CC(C)(C)C)cc1 (centres unmarked) [Example 76, 2-(tert-butoxy)-2-(6-methyl-1-neopentyl-4-(p-tolyl)-1H-pyrrolo[2,3-b]pyridin-5-yl)acetic acid]	0.9
Cc1ccc(-c2c(C(OC(C)(C)C)C(=O)O)c(C)nc3c2ccn3Cc2ccc(Cl)cc2)cc1 (centres unmarked) [Example 77, 2-(tert-Butoxy)-2-(1-(4-chlorobenzyl)-6-methyl-4-(p-tolyl)-1H-pyrrolo[2,3-b]pyridin-5-yl)acetic acid]	0.65
Cc1ccc(-c2c(C(OC(C)(C)C)C(=O)O)c(C)nc3c2ccn3Cc2cc(F)cc(F)c2)cc1 (centres unmarked) [Example 78, 2-(tert-Butoxy)-2-(1-(3,5-difluorobenzyl)-6-methyl-4-(p-tolyl)-1H-pyrrolo[2,3-b]pyridin-5-yl)acetic acid]	0.35
Cc1ccc(-c2c(C(OC(C)(C)C)C(=O)O)c(C)nc3c2ccn3CCOCc2ccccc2)cc1 (centres unmarked) [Example 79, 2-(1-(2-(benzyloxy)ethyl)-6-methyl-4-(p-tolyl)-1H-pyrrolo[2,3-b]pyridin-5-yl)-2-(tert-butoxy)acetic acid]	4.87
Cc1ccc(-c2c(C(OC(C)(C)C)C(=O)O)c(C)nc3c2ccn3Cc2ccc3c(c2)OCO3)cc1 (centres unmarked) [Example 80, 2-(1-(Benzo[d][1,3]dioxol-5-ylmethyl)-6-methyl-4-(p-tolyl)-1H-pyrrolo[2,3-b]pyridin-5-yl)-2-(tert-butoxy)acetic acid]	0.8
Cc1nc2c(ccn2[C@H](C)c2ccc(F)cc2)c(-c2ccc3c(c2)CCCO3)c1C(OC(C)(C)C)C(=O)O (some centres unmarked) [Example 81]	0.03
Cc1nc2c(ccn2C2(c3ccc(F)cc3)CC2)c(-c2ccc3c(c2)CCCO3)c1C(OC(C)(C)C)C(=O)O (centres unmarked) [Example 82, 2-(tert-butoxy)-2-(4-(chroman-6-yl)-1-(1-(4-fluorophenyl)cyclopropyl)-6-methyl-1H-pyrrolo[2,3-b]pyridin-5-yl)acetic acid]	0.3
Cc1nc2c(ccn2[C@@H](C)c2ccc(F)cc2)c(-c2ccc3c(c2)CCCO3)c1C(OC(C)(C)C)C(=O)O (some centres unmarked) [Example 83]	0.123

Same assay, conditions: read-out: HIV MT4 Assay IC50; HTLV-1 transformed cell line MT-4; read-out 96 hours later with cell titer glo; 10 point dose response

Structure (SMILES)	IC50 [µM]
Cc1nc2c(ccn2C(C)c2ccc(F)c(F)c2)c(-c2ccc3c(c2)CCCO3)c1C(OC(C)(C)C)C(=O)O (centres unmarked) [Example 71, 2-(tert-butoxy)-2-(4-(chroman-6-yl)-1-(1-(3,4-difluorophenyl)ethyl)-6-methyl-1H-pyrrolo[2,3-b]pyridin-5-yl)acetic acid]	0.016
Cc1nc2c(ccn2C(C)c2ccc(F)c(F)c2)c(-c2ccc3c(c2)CCCO3)c1C(OC(C)(C)C)C(=O)O (centres unmarked) [Example 72, 2-(tert-butoxy)-2-(4-(chroman-6-yl)-1-(1-(3,4-difluorophenyl)ethyl)-6-methyl-1H-pyrrolo[2,3-b]pyridin-5-yl)acetic acid]	0.19
